Measurements from patent publication US20250018019A1, “TREATMENT OF INTERFERON DRIVEN INFLAMMATION” (The Provost, Fellows, Foundation Scholars and the other …, priority 2023, published 2025).
Counter-ions that a name gives are not always drawn.

Key:
mice = experiment: LPS-induced inflammation model, serum IFN-β; type: in vivo, mouse; details: 50 mg/kg intraperitoneally 1 hour before LPS 2.5 mg/kg, blood 2 hours later
Experimental: 6-week-old male mice were used, and littermates were randomly assigned to experimental groups. Compounds were resuspended in 10% DMSO followed by 90% cyclodextrin/PBS (20% w/v). Mice were injected intraperitoneally with vehicle, FHIN1 or DMF (both 50 mg/kg) at a volume of 200 μl per injection. 1 hour later, mice were injected intraperitoneally with PBS or LPS from E. coli (2.5 mg/kg, Sigma) at a volume of 100 μl per injection. 2 hours later, mice were euthanised and blood was harvested retro-orbitally. Blood was allowed to clot for 30 mins at room temperature before it was centrifuged at 5000×g for 10 mins at 4° C. The serum was removed and IFN-β concentration was determined by ELISA. DuoSet ELISA kits for IL-1β, TNFα, IL-6, IL-10, and GDF15 were purchased from R&D Systems and were carried out according to the manufacturer's instructions with appropriately diluted cell supernatants added to each plate in duplicate or triplicate. IFN-β was determined using DuoSet ELISA kit from R&D Systems or Abcam (ab252363). […] Absorbance at 450 nm was quantified using a FLUOstar Optima plate reader. Corrected absorbance values were calculated by subtracting the background absorbance, and cytokine concentrations were subsequently obtained by extrapolation from a standard curve plotted on GraphPad Prism 9.2.0.

BMDMs = experiment: Flow cytometry, CellROX and TMRM staining; type: cell-based, mouse; details: LPS 4 h; for mitochondrial membrane potential (MMP), TMRM staining: BMDMs pre-treated, oligomycin 10 μM, CCCP 50 μM, valinomycin 10 nM, MMF 50 or 100 μM
Experimental: All compounds used DMSO as a vehicle except for 4-hydroxy tamoxifen (EtOH), NAC (PBS), and AOAA for tracing experiments (Media). LPS was used at a concentration of 100 ng/ml for indicated timepoints (2, 3, 4, 6, 8, 24, 48 h). FHIN1 (10 or 20 μM), MMF (50 or 100 μM), DMF (25 μM), AOAA (5 mM), oligomycin (10 μM), CCCP (50 μM) NAC (1 mM), and IMT1 (10 μM) pre-treatments were performed for 3 h prior the addition of LPS. Cells were treated with valinomycin (10 nM) 15 mins before LPS stimulation. Anti-CD210 or IgG control (10 μg/ml) antibodies were added to cells 1 h prior to LPS stimulation. Recombinant mouse IL-10 protein (100 ng/ml) was added to cells at the same time as LPS. Cells were treated with IFN-B1 (220 ng/ml) for 3 h. Cells were treated with C-178 (1 μM) 1 h prior to LPS stimulation or transfection with 2′3′-cGAMP (1.5 μg/ml) for 4 hrs to achieve cGAS-STING activation. Cells were treated with ODN 2088 (1 μM) for 1 hr prior to LPS stimulation or transfection with CPG ODN 1826 (1.5 μg/ml) to achieve TLR9 activation. 3 different timepoints of 4-hydroxy tamoxifen (TAM) (600 nM or 2 μM) or EtOH treatment were performed-these are specified in the individual figure legends. For ‘48 h’ treatments EtOH/TAM was added on day 5 of 6 during the BMDM differentiation protocol. On day 6 they were plated with EtOH/TAM (left overnight) and treated the following day. For ‘72 h’ treatments EtOH/TAM was added on day […] of 6 during the BMDM differentiation protocol. On day 6 they were plated with EtOH/TAM (left overnight) and treated the following day. For ‘96 h’ treatments EtOH/TAM was added on day […] of 6 during the BMDM differentiation protocol. On day 6 they were plated with EtOH/TAM and treated 2 days later.
Cells were plated in 12-well plates and treated as desired. CellROX Green (5 μM, Thermo Fisher) or TMRM (20 nM, Thermo Fisher) was added to cells 30 mins prior to end of cell treatments. Cells were washed once in PBS and scraped into 200 μl FACS buffer (2 mM EDTA, 0.5% FCS in PBS). Acquisition of samples was performed on a BD Accuri C6 flow cytometer. The gating strategy used for all flow cytometry experiments consisted of debris exclusion by FSC-A vs SSC-A analysis and subsequent doublet exclusion by FSC-A vs FSC-H analysis. A sample gating strategy is provided in Supplementary FIG. 2. 10,000 cells was acquired per condition. Mean fluorescence intensity (MFI) was calculated for all cells in each condition using FlowJo v10.

SMILES: COC(=O)/C=C/C(=O)OC [DMF, dimethyl fumarate]
- LPS-induced IFN-β release into the serum (mice): no effect
- mitochondrial membrane potential (MMP), TMRM staining (BMDMs): no effect

SMILES: CCOC(=O)[C@@]12CCCC=C1N(Cc1ccc(-c3ccccc3)cc1)C(=O)[C@H]2CC(=O)NC [FHIN1, Fumarate hydratase-IN-1]
- LPS-induced IFN-β release into the serum (mice): increased
- reactive oxygen species (ROS) production (CellROX MFI) (BMDMs; BMDMs pre-treated 3 h): increased
- mitochondrial membrane potential (MMP), TMRM staining (BMDMs): significantly increased staining
